Measured values published in patent publication US12624044B2, “SMARCA degraders and uses thereof” (Kymera Therapeutics, Inc., priority 2019, dated 2026).

Biological target: SMARCA2 (Homo sapiens, UniProt P51531)
Test: MSD SMARCA2 degradation in A549 cell line
Format: cell-based
Details: 24 h; for Dmax: A549, A549 cells; for DC50: A549 cells, read-out: SMARCA2 MSD A549 degradation 24 h: Average external-Abs DC50
Description: Cells were seeded into 96-well plates (A549 cells: 2×10^4 cells/well/100 ul media) abd incubated overnight. The next day, 200 nl compound were added into the intermediate plate with Echo (Labcyte 550) from source plate containing a 3-fold serial dilution from top concentration of 1 mM. The culture medium was changed with 80 ul of fresh medium and 80 ul of 2× compound solution was added into the well to make a final concentration of 1000 nM, 333.3 nM, 111.1 nM, 37.04 nM, 12.35 nM, 4.115 nM, 1.372 nM, 0.457 nM, 0.152 nM and 0 nM (DMSO). The wells were mixed and then incubated for 24 hours. The media was aspirated from the cultures and 60 ul pre-chilled PIPA lysis buffer (Boston BioProducts BP-115D) with protease/phosphatase inhibitor (Roche 05892791001/Roche 04906837001) was added into the well to lyze the cells for 20 minutes at 4° C. The MSD plate (L15XA) was coated with 40 ul cell lysate and incubated at 4° C. overnight. The next day, the plate was washed three times with TBST (CST #9997S), 150 ul/well. The MSD plates was blocked with 150 ul blocking buffer per well and shaked for 1 hr at RT, 600 rpm. The blocking buffer was 3% Blocker A (MSD, R93BA-4) in TBST. The MSD plate was washed three times with 150 ul/well of TBST and 25 ul/well of detection antibody (Rabbit anti-SMARCA2/BRM antibody, 100 μg/ml, ab223735) was added at final concentration of 1 ug/ml diluted in 1% Blocking buffer and shaken for 1 hour at RT, 600 rpm. The MSD plate was washed three times with 150 ul/well of TBST and 25 ul/well of SULFO-TAG anti-rabbit antibody (MSD, R32AB-1) was added at final concentration of 1 ug/ml diluted in 1% Blocking buffer and shaken for 1 hour at RT, 600 rpm. The MSD plate was washed three times with 150 ul/well of TBST and 150 ul/well of 2×MSD reading buffer diluted from 4× (MSD, R92TC-2) with water was added. Lastly, the MSD instrument was read.
The letter codes for the percentage of SMARCA2 degradation after 24 hours (Dmax %) include: A (>90% degradation), B (>70-90% degradation), C (50-70% degradation), and D (<50% degradation).

SMARCA2, sequence (P51531 whole entry): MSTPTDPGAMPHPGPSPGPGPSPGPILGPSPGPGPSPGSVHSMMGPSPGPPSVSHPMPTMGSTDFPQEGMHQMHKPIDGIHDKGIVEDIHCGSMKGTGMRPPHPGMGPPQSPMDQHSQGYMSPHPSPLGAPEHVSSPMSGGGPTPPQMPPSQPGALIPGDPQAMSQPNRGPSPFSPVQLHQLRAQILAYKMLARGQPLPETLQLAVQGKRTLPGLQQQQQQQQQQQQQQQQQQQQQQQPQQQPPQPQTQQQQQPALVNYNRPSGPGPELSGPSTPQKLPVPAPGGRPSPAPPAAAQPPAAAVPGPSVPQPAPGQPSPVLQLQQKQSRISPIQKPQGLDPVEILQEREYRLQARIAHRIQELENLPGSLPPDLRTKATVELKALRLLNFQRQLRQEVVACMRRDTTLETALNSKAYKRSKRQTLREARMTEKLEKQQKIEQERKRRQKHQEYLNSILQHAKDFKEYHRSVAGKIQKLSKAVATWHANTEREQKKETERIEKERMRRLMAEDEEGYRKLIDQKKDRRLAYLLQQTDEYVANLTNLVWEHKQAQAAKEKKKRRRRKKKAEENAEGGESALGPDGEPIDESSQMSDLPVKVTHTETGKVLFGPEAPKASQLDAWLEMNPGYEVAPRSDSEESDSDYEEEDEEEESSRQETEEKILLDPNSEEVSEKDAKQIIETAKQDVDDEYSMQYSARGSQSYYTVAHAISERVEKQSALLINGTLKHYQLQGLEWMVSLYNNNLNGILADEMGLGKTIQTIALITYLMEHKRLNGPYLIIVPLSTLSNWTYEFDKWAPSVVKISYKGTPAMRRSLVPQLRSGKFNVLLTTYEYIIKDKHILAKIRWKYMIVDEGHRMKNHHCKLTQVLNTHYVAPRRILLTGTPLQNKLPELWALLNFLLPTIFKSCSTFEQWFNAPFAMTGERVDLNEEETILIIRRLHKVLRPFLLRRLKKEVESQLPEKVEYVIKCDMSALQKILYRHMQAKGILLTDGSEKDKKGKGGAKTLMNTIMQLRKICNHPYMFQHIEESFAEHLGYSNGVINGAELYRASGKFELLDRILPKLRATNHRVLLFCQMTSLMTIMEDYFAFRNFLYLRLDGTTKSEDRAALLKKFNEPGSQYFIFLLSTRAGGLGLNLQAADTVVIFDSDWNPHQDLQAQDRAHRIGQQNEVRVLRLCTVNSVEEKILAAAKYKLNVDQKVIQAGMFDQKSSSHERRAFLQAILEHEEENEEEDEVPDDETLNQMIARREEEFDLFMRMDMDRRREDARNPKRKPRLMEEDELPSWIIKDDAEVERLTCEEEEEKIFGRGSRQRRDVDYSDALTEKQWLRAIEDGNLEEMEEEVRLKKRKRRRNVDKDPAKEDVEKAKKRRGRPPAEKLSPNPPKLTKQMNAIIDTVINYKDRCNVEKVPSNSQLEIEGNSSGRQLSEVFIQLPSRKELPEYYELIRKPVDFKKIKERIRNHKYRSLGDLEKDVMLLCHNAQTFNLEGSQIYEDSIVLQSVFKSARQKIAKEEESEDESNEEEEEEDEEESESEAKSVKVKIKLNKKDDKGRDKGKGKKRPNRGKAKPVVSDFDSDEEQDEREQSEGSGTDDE

| Compound | Dmax [%] | DC50 [nM] |
| --- | --- | --- |
| O=C1CCC(n2c(=O)oc3c(CCCOC4CCN(Cc5cccc(C#Cc6cc(NC(=O)Nc7cc(F)ncc7CO)ccn6)c5)CC4)cccc32)C(=O)N1 (stereo not drawn) [I-317] | < 50 | > 1000 |
| CN(Cc1cccc(C#Cc2cc(NC(=O)Nc3cc(F)ncc3CO)ccn2)c1)C1CCN(Cc2cccc3c2n(C)c(=O)n3C2CCC(=O)NC2=O)CC1 (stereo not drawn) [I-318] | < 50 | > 1000 |
| Cn1c(=O)n(C2CCC(=O)NC2=O)c2cccc(CN3CCC4(CCN(Cc5cccc(C#Cc6cc(NC(=O)Nc7cc(F)ncc7CO)ccn6)c5)CC4)CC3)c21 (stereo not drawn) [I-319] | < 50 | > 1000 |
| CN(Cc1cccc(C#Cc2cc(NC(=O)Nc3cc(F)ncc3CO)ccn2)c1)C1CCN(C(=O)c2cccc3c2n(C)c(=O)n3C2CCC(=O)NC2=O)CC1 (stereo not drawn) [I-320] | < 50 | > 1000 |
| Cc1ncsc1-c1ccc(CNC(=O)[C@@H]2C[C@@H](O)CN2C(=O)[C@@H](NC(=O)[C@H]2CC[C@@H](Cc3cnc(N4C5CCC4CN(c4cc(-c6ccccc6O)nnc4N)C5)nc3)CC2)C(C)(C)C)cc1 [I-367] | > 90 | < 100 |
| Cc1ncsc1-c1ccc(CNC(=O)[C@@H]2C[C@@H](O)CN2C(=O)[C@@H](NC(=O)[C@H]2C[C@@H](N(C)Cc3cnc(N4C5CCC4CN(c4cc(-c6ccccc6O)nnc4N)C5)nc3)C2)C(C)(C)C)cc1 [I-370] | 70 to 90 | 100 to 500 |
| Cc1ncsc1-c1ccc(CNC(=O)[C@@H]2C[C@@H](O)CN2C(=O)[C@@H](NC(=O)[C@H]2CC[C@@H](N(C)Cc3cnc(N4C5CCC4CN(c4cc(-c6ccccc6O)nnc4N)C5)nc3)CC2)C(C)(C)C)cc1 [I-371] | > 90 | 100 to 500 |
| Cc1ncsc1-c1ccc(CNC(=O)[C@@H]2C[C@@H](O)CN2C(=O)[C@@H](NC(=O)[C@H]2CC[C@H](N(C)Cc3cnc(N4C5CCC4CN(c4cc(-c6ccccc6O)nnc4N)C5)nc3)CC2)C(C)(C)C)cc1 [I-372] | 50 to 70 | 501 to 1000 |
| Cc1ncsc1-c1ccc(CNC(=O)[C@@H]2C[C@@H](O)CN2C(=O)[C@@H](NC(=O)[C@H]2CC[C@@H](CN3CCC(c4cnc(N5C6CCC5CN(c5cc(-c7ccccc7O)nnc5N)C6)nc4)CC3)CC2)C(C)(C)C)cc1 [I-373] | > 90 | 100 to 500 |
| Cc1ncsc1-c1ccc(CNC(=O)[C@@H]2C[C@@H](O)CN2C(=O)[C@@H](NC(=O)[C@H]2C[C@@H](CN3CCC(c4cnc(N5C6CCC5CN(c5cc(-c7ccccc7O)nnc5N)C6)nc4)CC3)C2)C(C)(C)C)cc1 [I-374] | 70 to 90 | 100 to 500 |
| Cc1ncsc1-c1ccc(CNC(=O)[C@@H]2C[C@@H](O)CN2C(=O)[C@@H](NC(=O)[C@H]2C[C@H](CN3CCC(c4cnc(N5C6CCC5CN(c5cc(-c7ccccc7O)nnc5N)C6)nc4)CC3)C2)C(C)(C)C)cc1 [I-376] | 50 to 70 | 501 to 1000 |
| Cc1ncsc1-c1ccc(CNC(=O)[C@@H]2C[C@@H](O)CN2C(=O)[C@@H](NC(=O)[C@H]2CC[C@@H](CCCCCN3CCC(Cn4cc(-c5cc(-c6ccccc6O)nnc5N)cn4)CC3)CC2)C(C)(C)C)cc1 [I-377] | 70 to 90 | 100 to 500 |
| Cc1ncsc1-c1ccc(CNC(=O)[C@@H]2C[C@@H](O)CN2C(=O)[C@@H](NC(=O)[C@H]2CC[C@@H](c3ccc(CN4CCC(Cn5cc(-c6cc(-c7ccccc7O)nnc6N)cn5)CC4)cc3)CC2)C(C)(C)C)cc1 [I-379] | > 90 | 100 to 500 |
| Cc1ncsc1-c1ccc(CNC(=O)[C@@H]2C[C@@H](O)CN2C(=O)[C@@H](NC(=O)[C@H]2CC[C@H](c3ccc(CN4CCC(Cn5cc(-c6cc(-c7ccccc7O)nnc6N)cn5)CC4)cc3)CC2)C(C)(C)C)cc1 [I-380] | > 90 | 100 to 500 |
| Cc1ncsc1-c1ccc(CNC(=O)[C@@H]2C[C@@H](O)CN2C(=O)[C@@H](NC(=O)C2CC3(CCN(CCN4CCC(Cn5cc(-c6cc(-c7ccccc7O)nnc6N)cn5)CC4)CC3)C2)C(C)(C)C)cc1 [I-381] | 50 to 70 | 501 to 1000 |
| Cc1ncsc1-c1ccc(CNC(=O)[C@@H]2C[C@@H](O)CN2C(=O)[C@@H](NC(=O)C[C@H]2C[C@H](N3CCC(c4cnc(N5C6CCC5CN(c5cc(-c7ccccc7O)nnc5N)C6)nc4)CC3)C2)C(C)(C)C)cc1 [I-391] | > 90 | 100 to 500 |
| Cc1ncsc1-c1ccc(CNC(=O)[C@@H]2C[C@@H](O)CN2C(=O)[C@@H](NC(=O)C[C@H]2C[C@@H](N3CCC(c4cnc(N5C6CCC5CN(c5cc(-c7ccccc7O)nnc5N)C6)nc4)CC3)C2)C(C)(C)C)cc1 [I-392] | 70 to 90 | 100 to 500 |
| Cc1ncsc1-c1ccc(CNC(=O)[C@@H]2C[C@@H](O)CN2C(=O)[C@@H](NC(=O)[C@H]2CC[C@H](N3CC(c4cnc(N5C6CCC5CN(c5cc(-c7ccccc7O)nnc5N)C6)nc4)C3)CC2)C(C)(C)C)cc1 [I-393] | > 90 | 100 to 500 |
| Cc1ncsc1-c1ccc(CNC(=O)[C@@H]2C[C@@H](O)CN2C(=O)[C@@H](NC(=O)C2CC3(CCN(Cc4cnc(N5C6CCC5CN(c5cc(-c7ccccc7O)nnc5N)C6)nc4)CC3)C2)C(C)(C)C)cc1 [I-394] | > 90 | 100 to 500 |
| Cc1ncsc1-c1ccc(CNC(=O)[C@@H]2C[C@@H](O)CN2C(=O)[C@@H](NC(=O)[C@H]2CC[C@H](C(=O)N(C)Cc3cnc(N4C5CCC4CN(c4cc(-c6ccccc6O)nnc4N)C5)nc3)CC2)C(C)(C)C)cc1 [I-396] | 70 to 90 | 100 to 500 |
| Cc1ncsc1-c1ccc(CNC(=O)[C@@H]2C[C@@H](O)CN2C(=O)[C@@H](NC(=O)[C@H]2CC[C@H](N3CCC(CN4CCC(Cn5cc(-c6cc(-c7ccccc7O)nnc6N)cn5)CC4)CC3)CC2)C(C)(C)C)cc1 [I-397] | < 50 | > 1000 |
| Cc1ncsc1-c1ccc(CNC(=O)[C@@H]2C[C@@H](O)CN2C(=O)[C@@H](NC(=O)[C@H]2CC[C@H](CN3CCC(c4cnc(N5C6CCC5CN(c5cc(-c7ccccc7O)nnc5N)C6)nc4)CC3)CC2)C(C)(C)C)c(C(F)(F)F)c1 [I-398] | 50 to 70 | 501 to 1000 |
| Cc1ncsc1-c1ccc(CNC(=O)[C@@H]2C[C@@H](O)CN2C(=O)[C@@H](NC(=O)[C@H]2CC[C@H](N3CCC(N4CCC(n5cc(-c6cc(-c7ccccc7O)nnc6N)cn5)CC4)CC3)CC2)C(C)(C)C)cc1 [I-400, (2S,4R)-1-((S)-2-((1r,4S)-4-(4-(4-(3-amino-6-(2-hydroxyphenyl)pyridazin-4-yl)-1H-pyrazol-1-yl)-[1,4′-bipiperidin]-1′-yl)cyclohexanecarboxamido)-3,3-dimethylbutanoyl)-4-hydroxy-N-(4-(4-methylthiazol-5-yl)benzyl)pyrrolidine-2-carboxamide] | 70 to 90 | 501 to 1000 |
| Cc1ncsc1-c1ccc(CNC(=O)[C@@H]2C[C@@H](O)CN2C(=O)[C@@H](NC(=O)[C@@H]2CC3CCC2C[C@@H]3c2cnc(N3C4CCC3CN(c3cc(-c5ccccc5O)nnc3N)C4)nc2)C(C)(C)C)cc1 (stereo partly drawn) [I-410] | > 90 | 100 to 500 |
| Cc1ncsc1-c1ccc(CNC(=O)[C@@H]2C[C@@H](O)CN2C(=O)[C@@H](NC(=O)[C@H]2CC[C@@H](Cc3ccc(-c4cnc(N5C6CCC5CN(c5cc(-c7ccccc7O)nnc5N)C6)nc4)cc3)CC2)C(C)(C)C)cc1 [I-413] | 70 to 90 | 100 to 500 |
| Cc1ncsc1-c1ccc(CNC(=O)[C@@H]2C[C@@H](O)CN2C(=O)[C@@H](NC(=O)C2CC3(C2)CC(N2CCC(c4cnc(N5C6CCC5CN(c5cc(-c7ccccc7O)nnc5N)C6)nc4)CC2)C3)C(C)(C)C)cc1 (stereo partly drawn) [I-414] | > 90 | 100 to 500 |
| Cc1ncsc1-c1ccc(CNC(=O)[C@@H]2C[C@@H](O)CN2C(=O)[C@@H](NC(=O)C2CC3(C2)CC(N(C)Cc2cnc(N4C5CCC4CN(c4cc(-c6ccccc6O)nnc4N)C5)nc2)C3)C(C)(C)C)cc1 (stereo partly drawn) [I-416] | > 90 | 100 to 500 |
| Cc1ncsc1-c1ccc(CNC(=O)[C@@H]2C[C@@H](O)CN2C(=O)[C@@H](NC(=O)[C@H]2CC3(C[C@H](CN(C)Cc4cnc(N5C6CCC5CN(c5cc(-c7ccccc7O)nnc5N)C6)nc4)C3)C2)C(C)(C)C)cc1 (stereo partly drawn) [I-417] | > 90 | 100 to 500 |
| Cc1ncsc1-c1ccc(CNC(=O)[C@@H]2C[C@@H](O)CN2C(=O)[C@@H](NC(=O)C2CC=C(c3nccc(N4C5CCC4CN(c4cc(-c6ccccc6O)nnc4N)C5)n3)CC2)C(C)(C)C)cc1 (stereo partly drawn) [I-418] | > 90 | 100 to 500 |
| Cc1ncsc1-c1ccc(CNC(=O)[C@@H]2C[C@@H](O)CN2C(=O)[C@@H](NC(=O)[C@H]2CC[C@@H](Cc3cnc(N4C5CCC4CN(c4cc(-c6ccccc6O)nnc4N)C5)nc3)CC2)C(C)(C)C)c(C(F)(F)F)c1 [I-421] | 70 to 90 | 100 to 500 |
